Assay results as given in US7517654B2, “Peptide and a derivative thereof promoting cell adhesion and spreading” (Seoul National University Industry Foundation, priority 2004, dated 2009).

What was measured:
[1] = tested on: HOK-16B cells; assay: Cell spreading activity assay on coated plates; format: cell-based, human; settings: for cell spreading activity compared to the peptide P4 control: HOK-16B cells, 10 μg/well truncated or Ala-substituted peptide coating, 1 h; for cell spreading activity: HOK-16B cells on rLG protein- or peptide P1-P5-coated plates
Protocol: To identify spreading cells, attached cells were fixed with 10% formalin in PBS for 15 min, rinsed twice with PBS, and stained with 0.005% crystal violet for 1 h. The plates were then gently rinsed with DDW. To ensure a representative count, each plate was divided into quarters, two fields per quarter were photographed using an Olympus BX51 microscope at 100× magnification. Cells that had adopted a flattened, polygonal shape, with filopodia-and lamellipodia-like extensions were considered to be spreading cells. In contrast, cells that resisted being washed and remained tethered to the plate surface were considered to be non-spreading cells.
To examine the adhesion activity of peptide P4 in detail, the inventors examined whether the adherent cells were tethered to the substratum or spread over the substratum. The BSA and rLG3 were used as the negative control and positive control, respectively, the percentage of cells displaying a spreading morphology was quantified by dividing the number of spreading cells by the total number of bound cells.

[2] = tested on: HOK-16B cells; assay: Cell adhesion assay on coated plates (crystal violet absorbance at 570 nm / cell counting); format: cell-based, human; settings: 1 h; for cell adhesion activity compared to the peptide P4 control / cell adhesion activity of synthetic peptides: HOK-16B cells; for cell adhesion activity compared to the peptide P4 control: 10 μg/well truncated or Ala-substituted peptide coating; for cell adhesion activity of synthetic peptides: plates coated with 10-50 μg/well peptide, serum-free medium; for cell adhesion activity of rLG proteins: HOK-16B cells on rLG protein-coated plates, compared to BSA control
Protocol: The cell adhesion assay was performed according to a method reported by Okazaki et al. (J. Biol. Chem., 277:37070, 2002). In detail, 24-well culture plates (Nunc, Roskilde, Denmark) were coated with various amounts of rLG proteins at 4° C. overnight. The peptides were also coated on plates by drying overnight. The substrate-coated on the plates were blocked by adding 1% heat-inactivated bovine serum albumin (BSA) in PBS for 1 h at 37° C. and washed twice with PBS. The cells in the Experimental Example 1, detached by 0.05% tyrpsin and 0.53 mM EDTA in PBS and resuspended in culture media, were added (1×10^5 cells/500 μl) to each plate and incubated for 1 h at 37° C. After incubation, unattached cells were removed by rinsing twice with PBS. The attached cells were fixed with 10% formalin in PBS for 15 min, rinsed twice with PBS, and stained with 0.5% crystal violet for 1 h. The plates were gently rinsed with DDW three times and lysed with 2% SDS for 5 min. Absorbance was measured at 570 nm in a Bio-Rad Model 550 microplate reader (BioRad).
The cell adhesion and spreading activities on peptide-coated plates were examined using HOK-16B cells by the same method as Experimental Example 2. 24-well plates were coated with 10, 20, 30, 40 and 50 μg/well peptides P1 to P5, respectively. HOK-16B cells were added to peptide-coated plates and cultured for 1 h in serum-free medium for 1 hr. After the unbound cells were washed off, adherent cells were fixed and stained with crystal violet, and then the stained cells were analyzed. Absorbance was measured at 570 nm in a microplate reader. BSA and the rLG3 were used as negative control and positive control, respectively.
It was observed that peptide P4 promotes strong cell adhesion and spreading activities and binds to integrin α3β1 in the Example 4. Therefore, to determine the biologically active core sequences in peptide P4, five synthetic peptides (P4 D-I to P4 D-V), which are C-terminal truncated peptides from the peptide P4, and six synthetic peptides (P4 D-N1 to P4 D-N6), which are N-terminal truncated peptides from the peptide P4 were prepared (FIG. 6A) and examined for HOK-16B cell adhesion and spreading activities on peptide-coated plates by the present inventors. 24-well plates were coated with 10 μg/well C-terminal truncated peptides or N-terminal truncated peptides, and HOK-16B cells were added to the plates, and then cultured in serum-free medium for 1 hr. After the unbound cells were washed off, the adherent cells were fixed to stain with crystal violet, and the stained cells were analyzed. Absorbance was measured at 570 nm in a microplate reader. Peptide P4 and BSA were used as the positive and negative controls, respectively.
24-well plates were coated with 10 μg/well peptides, and HOK-16B cells were added to the plates, and then cultured in serum-free medium for 1 hr. After the unbound cells were washed off, the adherent cells were fixed to stain with crystal violet, and the stained cells were analyzed. Peptide P4 and BSA were used as the positive and negative controls, respectively. The results were expressed as mean ±SD of the four independent experiments.

For “peptide P4-S1: peptide P4 in which the 8th Lys of SEQ ID NO: 1 is replaced by Ala (PPFLMLLAGSTR)”, the “cell spreading activity compared to the peptide P4 control” value [1] was “unaffected” and the “cell adhesion activity compared to the peptide P4 control” value [2] was “unaffected”.

In the case of “peptide P5: 12-mer peptide, residues 1321-1332 of SEQ ID NO: 2 (STRFNKTKTFRI; listed as Homo sapiens)”, the “cell adhesion activity of synthetic peptides” value [2] is reported as “very weak dose-dependent adhesion activity at concentrations ≧25 μg/well”.

In the case of “P3: 12-mer peptide, residues 1305-1316 of SEQ ID NO: 2 (GGCSLNKPPFLM; listed as Homo sapiens)”, the “cell adhesion activity of synthetic peptides” value [2] is reported as “no adhesion activity”.

In the case of “peptide P4 D-N2: peptide P4 with deletions of the N-terminal two Pro residues (FLMLLKGSTR)”, the “cell spreading activity compared to the peptide P4 control” value [1] is reported as “showed a significantly lower cell adhesion and spreading activities” and the “cell adhesion activity compared to the peptide P4 control” value [2] is reported as “showed a significantly lower cell adhesion and spreading activities”.

In the case of “peptide P4 D-I: peptide P4 with a deletion of the C-terminal Arg residue (PPFLMLLKGST)”, the “cell adhesion activity compared to the peptide P4 control” value [2] is reported as “significantly lower cell adhesion activity than the peptide P4 control”.

“peptide P1: 12-mer peptide, residues 1293-1304 of human laminin α3 chain SEQ ID NO: 2; control peptide (LTSNSLKRDVSL; listed as Homo sapiens)” was tested, and the “cell adhesion activity of synthetic peptides” value [2] was “no adhesion activity”.

For “P2: 12-mer peptide, residues 1297-1308 of SEQ ID NO: 2 (SLKRDVSLGGCS; listed as Homo sapiens)”, the “cell adhesion activity of synthetic peptides” value [2] was “no adhesion activity”.

“peptide P4 D-N1: peptide P4 with a deletion of one of the N-terminal two Pro residues (PFLMLLKGSTR)” was tested, and the “cell spreading activity compared to the peptide P4 control” value [1] was “did not show a significantly lower cell adhesion and spreading activities” and the “cell adhesion activity compared to the peptide P4 control” value [2] was “did not show a significantly lower cell adhesion and spreading activities”.

B1: rLG1: recombinant His6-tagged LG1 domain, residues 782-978 of human laminin α3 chain, expressed in E. coli (protein, listed as Homo sapiens)
chain: RLPNDLEDLKGYTSLSLFLQRPNSRENGGTENMFVMYLGNKDASRDYIGMAVVDGQLTCVYNLGDREAELQVDQILTKSETKEAVMDRVKFQRIYQFARLNYTKGATSSKPETPGVYDMDGRNSNTLLNLDPENVVFYVGGYPPDFKLPSRLSFPPYKGCIELDDLNENVLSLYNFKKTFNLNTTEVEPCRRRKEES
modifications: His6 tag
notes: recombinant His6-tagged LG1 domain, residues 782-978 of human laminin α3 chain, expressed in E. coli
For B1, the cell spreading activity [1] was “minimal cell spreading” and the “cell adhesion activity of rLG proteins” value [2] was “marginal adhesion activity”.

B2: rLG5: recombinant His6-tagged LG5 domain, residues 1522-1713 of human laminin α3 chain (protein, listed as Homo sapiens)
chain: SSSFGVSSCLGGPLEKGIYFSEEGGHVVLAHSVLLGPEFKLVFSIRPRSLTGILIHIGSQPGKHLCVYLEAGKVTASMDSGAGGTSTSVTPKQSLCDGQWHSVAVTIKQHILHLELDTDSSYTAGQIPFPPASTQEPLHLGGAPANLTTLRIPVWKSFFGCLRNIHVNHIPVPVTEALEVQGPVSLNGCPDQ
modifications: His6 tag
notes: recombinant His6-tagged LG5 domain, residues 1522-1713 of human laminin α3 chain
With B2 the cell spreading activity [1] was “minimal cell spreading” and the “cell adhesion activity of rLG proteins” value [2] was “marginal adhesion activity”.

B3: rLG4: recombinant His6-tagged LG4 domain, residues 1352-1555 of human laminin α3 chain (protein, listed as Homo sapiens)
chain: DACSPLPKTQANHGALQFGDIPTSHLLFKLPQELLKPRSQFAVDMQTTSSRGLVFHTGTKNSFMALYLSKGRLVFALGTDGKKLRIKSKEKCNDGKWHTVVFGHDGEKGRLVVDGLRAREGSLPGNSTISIRAPVYLGSPPSGKPKSLPTNSFVGCLKNFQLDSKPLYTPSSSFGVSSCLGGPLEKGIYFSEEGGHVVLAHSVL
modifications: His6 tag
notes: recombinant His6-tagged LG4 domain, residues 1352-1555 of human laminin α3 chain
For B3, the cell spreading activity [1] was “minimal cell spreading” and the “cell adhesion activity of rLG proteins” value [2] was “marginal adhesion activity”.

B4: rLG2: recombinant His6-tagged LG2 domain, residues 959-1148 of human laminin α3 chain (protein, listed as Homo sapiens)
chain: KTFNLNTTEVEPCRRRKEESDKNYFEGTGYARVPTQPHAPIPTFGQTIQTTVDRGLLFFAENGDRFISLNIEDGKLMVRYKLNSELPKERGVGDAINNGRDHSIQIKIGKLQKRMWINVDVQNTIIDGEVFDFSTYYLGGIPIAIRERFNISTPAFRGCMKNLKKTSGVVRLNDTVGVTKKCSEDWKLVR
modifications: His6 tag
notes: recombinant His6-tagged LG2 domain, residues 959-1148 of human laminin α3 chain
With B4 the cell spreading activity [1] was “minimal cell spreading” and the “cell adhesion activity of rLG proteins” value [2] was “marginal adhesion activity”.
